The target of the first assay is T1, REV-ERBα LBD (human; residues 281-614 Δ324-422) (Homo sapiens, UniProt P20393, DEL324-422).
T1 construct: 6×Histag-REV-ERBα LBD (human; residues 281-614 Δ324-422); made in house; host or cells: Escherichia coli
T1 sequence (P20393 with tags, fused parts or gaps DEL324-422): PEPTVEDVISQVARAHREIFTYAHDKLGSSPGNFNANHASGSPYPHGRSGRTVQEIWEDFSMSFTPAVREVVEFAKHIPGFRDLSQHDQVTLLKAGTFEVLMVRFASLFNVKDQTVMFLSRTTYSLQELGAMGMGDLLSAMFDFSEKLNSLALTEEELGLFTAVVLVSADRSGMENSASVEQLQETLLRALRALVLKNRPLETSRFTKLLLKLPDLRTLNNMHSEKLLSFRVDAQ
T1 sequence (Q9Y618 2335-2356 partner limits assumed): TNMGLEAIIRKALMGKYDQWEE
In words: TR-FRET corepressor interaction assay (REV-ERBα LBD, FITC-SMRT peptide). Format: biochemical. As to conditions: FITC-SMRT peptide, read-out: REVERBα agonism (EC50 class, FRET assay). In a few lines:
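Compound serial dilutions (in DMSO, triplicate) incubated 2 h at 4 °C; Tb donor excited at 340 nm, emission read at 495 nm and FITC acceptor at 520 nm. TR-FRET ratio (520/495 nm) plotted against ligand concentration and fitted to a sigmoidal dose-response curve.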
(Time-resolved FRET reads energy transfer from a long-lived donor to a nearby acceptor.)
On to `CC(C)(C)Cn1cc(CCNS(=O)(=O)C2CC2)c2ccc(-c3cccc(C(F)(F)F)c3Cl)cc21` [Example 485, N-(2-(6-(2-chloro-3-(trifluoromethyl)phenyl)-1-neopentyl-1H-indol-3-yl)ethyl)cyclopropanesulfonamide], for which the EC50 is 500 to 3000 nM.
With `[2H][C@](NS(=O)(=O)C1CC1)(c1cn(CC(C)(C)C)c2cc(-c3ccccc3C(F)(F)F)ccc12)C(F)F` [Example 550, (S)—N-(2,2-difluoro-1-(1-neopentyl-6-(2-(trifluoromethyl)phenyl)-1H-indol-3-yl)ethyl-1-d)cyclopropanesulfonamide], the EC50 is less than 500 nM.
With `CC(C)Cn1cc([C@H](NS(=O)(=O)C2CC2)C(F)(F)F)c2cc(F)c(-c3ccncn3)cc21` [Example 455, (S)—N-(2,2,2-trifluoro-1-(5-fluoro-1-isobutyl-6-(pyrimidin-4-yl)-1H-indol-3-yl)ethyl)cyclopropanesulfonamide], the EC50 was less than 500 nM.
The same measure, in the same setting: for `CC(C)(C)Cn1cc([C@H](NS(=O)(=O)C2COC2)C(F)(F)F)c2cc(F)c(-c3ccccc3C(F)(F)F)cc21` [Example 459, (S)—N-(2,2,2-trifluoro-1-(5-fluoro-1-neopentyl-6-(2-(trifluoromethyl)phenyl)-1H-indol-3-yl)ethyl)oxetane-3-sulfonamide] the value was less than 500 nM; for `CN(C)C(=O)c1ccccc1-c1ccc2c([C@H](NS(=O)(=O)C3CC3)C(F)(F)F)cn(CC(C)(C)C)c2c1` [Example 471, (S)-2-(3-(1-(cyclopropanesulfonamido)-2,2,2-trifluoroethyl)-1-neopentyl-1H-indol-6-yl)-N,N-dimethylbenzamide], 500 to 3000 nM; for `N#Cc1cccc(F)c1-c1ccc2c([C@H](NS(=O)(=O)C3CCC3)C(F)(F)F)cn(C3CCC3)c2c1` [Example 520, (S)—N-(1-(6-(2-cyano-6-fluorophenyl)-1-cyclobutyl-1H-indol-3-yl)-2,2,2-trifluoroethyl)cyclobutanesulfonamide], less than 500 nM.
On the same count and under the same terms, with `NC(=O)c1cccc(F)c1-c1ccc2c([C@H](NS(=O)(=O)C3CCC3)C(F)(F)F)cn(C3CCOCC3)c2c1` [Example 434, (S)-2-(3-(1-(cyclobutanesulfonamido)-2,2,2-trifluoroethyl)-1-(tetrahydro-2H-pyran-4-yl)-1H-indol-6-yl)-3-fluorobenzamide] the figure was more than 3000 nM.
Still for that read-out and setting: with `CC(C)(C)Cn1cc([C@H](NS(=O)(=O)C2CCC2)C(F)F)c2ccc(-c3ccc(F)cc3C(F)(F)F)cc21` [Example 562, (S)—N-(2,2-difluoro-1-(6-(4-fluoro-2-(trifluoromethyl)phenyl)-1-neopentyl-1H-indol-3-yl)ethyl)cyclobutanesulfonamide] the figure was less than 500 nM; with `CC(C)(C)Cn1cc([C@H](NS(=O)(=O)C2CCC2)C(F)(F)F)c2cc(F)c(-c3cccnc3C(F)(F)F)cc21` [Example 528, (S)—N-(2,2,2-trifluoro-1-(5-fluoro-1-neopentyl-6-(2-(trifluoromethyl)pyridin-3-yl)-1H-indol-3-yl)ethyl)cyclobutanesulfonamide], less than 500 nM.
Take `CC(NS(=O)(=O)C1CCC1)c1cn(CC(C)(C)C)c2cc(-c3ccccc3C(F)(F)F)c(F)cc12` (stereo not drawn) [Example 508, N-(1-(5-fluoro-1-neopentyl-6-(2-(trifluoromethyl)phenyl)-1H-indol-3-yl)ethyl)cyclobutanesulfonamide]: the EC50 is less than 500 nM.

The assay is the same for the next values; noted with them: Table 2, read-out: REVERBα agonism (EC50 class, FRET assay).
Take `CC(C)Cn1cc(CCCNS(=O)(=O)N(C)C)c2ccc(-c3ccncc3)cc21` [Compound 235]: the concentration for a half-maximal effect (EC50) is more than 3000 nM.
Still for that read-out and setting: for `CC(C)c1cc2c(cc1F)c([C@H](NS(=O)(=O)N(C)C)C(F)(F)F)cn2CC(C)(C)C` [Example 337, {[(1S)-1-[1-(2,2-dimethylpropyl)-5-fluoro-6-(propan-2-yl)-1H-indol-3-yl]-2,2,2-trifluoroethyl]sulfamoyl}dimethylamine] the value was 500 to 3000 nM.
`CC(C)Cn1cc(CCNS(=O)(=O)N(C)C)c2ccc(F)cc21` [Example 110, ({2-[6-fluoro-1-(2-methylpropyl)-1H-indol-3-yl]ethyl}sulfamoyl)dimethylamine]: the EC50 lay in the range of 500 to 3000 nM.
On the same count and under the same terms, for `CC(C)C(=O)n1cc(CNS(=O)(=O)N(C)C)c2ccc(-c3ccccc3Cl)cc21` [Example 183] the value was 500 to 3000 nM; for `CC(=O)n1cc(CCNS(=O)(=O)N(C)C)c2ccc(-c3ccncc3)cc21` [Compound 42, 1-(3-{2-[(dimethylsulfamoyl)amino]ethyl}-6-(pyridin-4-yl)-1H-indol-1-yl)ethan-1-one], more than 3000 nM; for `CC(C)Cn1cc([C@H](NS(=O)(=O)C2CC2)C(F)(F)F)c2ccc(-c3ccccc3C(F)(F)F)cc21` [Example 410, (S)—N-(2,2,2-trifluoro-1-(1-isobutyl-6-(2-(trifluoromethyl)phenyl)-1H-indol-3-yl)ethyl)cyclopropanesulfonamide], less than 500 nM.
With `O=S(=O)(NCc1cn(CC2CCCC2)c2cc(-c3ccccc3C(F)(F)F)c(F)cc12)C1CC1` [Compound 280], the EC50 is less than 500 nM.
Turning to `CC(C)(C)Cn1cc([C@H](NS(=O)(=O)C2CC2)C(F)(F)F)c2cc(F)c(-c3ccncc3Cl)cc21` [Example 361, (S)—N-(1-(6-(3-chloropyridin-4-yl)-5-fluoro-1-neopentyl-1H-indol-3-yl)-2,2,2-trifluoroethyl)cyclopropanesulfonamide], the EC50 was less than 500 nM.
The same measure, in the same setting: with `Cc1noc(C)c1-c1ccc2c(CCNS(=O)(=O)N(C)C)cn(CC(C)C)c2c1` [Compound 64, ({2-[6-(3,5-dimethyl-1,2-oxazol-4-yl)-1-(2-methylpropyl)-1H-indol-3-yl]ethyl}sulfamoyl)dimethylamine] the figure was more than 3000 nM.
Still for that read-out and setting: with `CC(C)C(=O)n1cc(CNS(=O)(=O)N(C)C)c2ccc(-c3ccnn3C)cc21` [Example 184, 1-(3-{[(dimethylsulfamoyl)amino]methyl}-6-(1-methyl-1H-pyrazol-5-yl)-1H-indol-1-yl)-2-methylpropan-1-one] the figure was more than 3000 nM; with `CC(C)(C)Cn1cc(CCNS(=O)(=O)C2CC2)c2ccc(-c3ccc(Cl)cc3C(F)(F)F)cc21` [Example 394, N-(2-(6-(4-chloro-2-(trifluoromethyl)phenyl)-1-neopentyl-1H-indol-3-yl)ethyl)cyclopropanesulfonamide], less than 500 nM.
Still for that read-out and setting: for `CC(C)(C)Cc1cn(CCNS(=O)(=O)C2CC2)c2cc(F)c(-c3ccc(F)cc3C(F)(F)F)cc12` [Example 294] the value was less than 500 nM.
With `CN(C)S(=O)(=O)N(C)CCc1cn(C)c2cc(-c3ccncc3)ccc12` [Example 127, N′-{2-[6-(pyridin-4-yl)-1-methyl-1H-indol-3-yl]ethyl}-N′-methyl-N,N-dimethylsulfuric diamide], the EC50 was 500 to 3000 nM.
For `CC(C)(C)Cn1cc([C@H](NS(=O)(=O)C2CC(F)(F)C2)C(F)(F)F)c2ccc(-c3ccccc3C(F)(F)F)cc21` [Example 419, (S)-3,3-difluoro-N-(2,2,2-trifluoro-1-(1-neopentyl-6-(2-(trifluoromethyl)phenyl)-1H-indol-3-yl)ethyl)cyclobutane-1-sulfonamide], the EC50 was 500 to 3000 nM.
The same measure, in the same setting: for `CC(C)(C)Cn1cc(CCNS(=O)(=O)C2CC2)c2ccc(-c3ccc(C(F)(F)F)cc3Cl)cc21` [Example 396, N-(2-(6-(2-chloro-4-(trifluoromethyl)phenyl)-1-neopentyl-1H-indol-3-yl)ethyl)cyclopropanesulfonamide] the value was less than 500 nM.
Same read-out and setting: with `CC(NS(=O)(=O)C1CC1)c1cn(CC(C)(C)C)c2cc(-c3ccccc3C(F)(F)F)ccc12` (stereo not drawn) [Example 420, N-(1-(1-neopentyl-6-(2-(trifluoromethyl)phenyl)-1H-indol-3-yl)ethyl)-cyclopropanesulfonamide] the figure was less than 500 nM; with `Cc1ccc(-c2ccc3c(CCNS(=O)(=O)C4CC4)cn(CC(C)(C)C)c3c2)c(C(F)(F)F)c1` [Example 398, N-(2-(6-(4-methyl-2-(trifluoromethyl)phenyl)-1-neopentyl-1H-indol-3-yl)ethyl)cyclopropanesulfonamide], less than 500 nM; with `CC(C)c1cc2c(cc1F)c([C@H](NS(=O)(=O)C1CC1)C(F)(F)F)cn2CC(C)(C)C` [Example 336, (S)—N-(2,2,2-trifluoro-1-(5-fluoro-6-isopropyl-1-neopentyl-1H-indol-3-yl)ethyl)cyclopropanesulfonamide], 500 to 3000 nM.
Still for that read-out and setting: with `CCn1cc(CCNS(=O)(=O)N(C)C)c2ccc(Br)cc21` [Compound 157, {[2-(6-bromo-1-ethyl-1H-indol-3-yl)ethyl]sulfamoyl}dimethylamine] the figure was 500 to 3000 nM; with `CC(C)(C)Cc1cn(CCNS(=O)(=O)C2CC2)c2ccc(-c3cccc4ccncc34)cc12` [Example 217, N-(2-(5-(isoquinolin-8-yl)-3-neopentyl-1H-indol-1-yl)ethyl)cyclopropane-sulfonamide], 500 to 3000 nM; with `CC(C)Cn1cc([C@H](NS(=O)(=O)C2CC2)C(F)(F)F)c2cc(F)c(C(C)C)cc21` [Example 334, (S)—N-(2,2,2-trifluoro-1-(5-fluoro-1-isobutyl-6-isopropyl-1H-indol-3-yl)ethyl)cyclopropanesulfonamide], 500 to 3000 nM.
As for `CC(C)Cn1cc([C@H](NS(=O)(=O)C2CC2)C(F)(F)F)c2cc(F)c(-c3ccccc3Cl)cc21` [Example 314, (S)—N-(1-(6-(2-chlorophenyl)-5-fluoro-1-isobutyl-1H-indol-3-yl)-2,2,2-trifluoroethyl)cyclopropanesulfonamide], the EC50 is less than 500 nM.
In the case of `CC(C)(C)Cn1cc([C@H](NS(=O)(=O)C2CC2)C(F)(F)F)c2cc(F)c(-c3ccccc3C(F)(F)F)cc21` [Example 319, (S)—N-(2,2,2-trifluoro-1-(5-fluoro-1-neopentyl-6-(2-(trifluoromethyl)phenyl)-1H-indol-3-yl)ethyl)cyclopropanesulfonamide], the EC50 was less than 500 nM.

As a reminder, the EC50 is the concentration giving half of the maximal effect.
